Test results reported in patent US8084016B2, “Measurement of biosynthesis and breakdown rates of biological molecules that are inaccessible or not easily accessible to direct sampling, non-invasively, by label incorporation into metabolic derivatives and catabolitic products” (The Regents of the University of California, priority 2002, dated 2011).

Key:
muscle myosin = test: Incorporation of ^2H from ^2H2O into urinary 3-methyl-histidine (muscle myosin biosynthesis); assay type: in vivo; conditions: human subjects, intake of ^2H2O for 4-8 weeks
Excerpt: An individual undergoing a physical training program or medical therapeutic regimen intended to increase muscle mass by increasing muscle myosin biosynthesis (e.g., an athlete; an elderly person receiving physical therapy after a stroke; a patient with cachexia related to cancer or AIDS who is receiving nutritional or anabolic agent therapy) is given a labeled precursor that is incorporated into the body's proteins during biosynthesis. […] […] […] Total urinary amino acids are isolated with an SPE column. The amino acids are derivatized for gas chromatographic/mass spectrometric analysis. […] The derivatized amino acids are injected into a gas chromatograph/mass spectrometer (e.g., HP 5973 instrument), using, e.g., a DB-225 column. The mass spectrum of the 3-methyl histidine peak is collected while monitoring mass isotopomers at m/z 267 and 268 (parent and M+1 ions, respectively). Relative abundances of the above mass isotopomers are quantified in samples and compared to unlabeled standards ([…] 267+268]=0.1200 in samples and 0.0960 in standards). The proportion of labeled:unlabeled molecules present in the sample is calculated for 3-methylhistidine using MIDA.

[1] = Body water ^2H2O enrichment during oral ^2H2O intake; assay type: in vivo, human
[2] = Toxicity observation during maintained body water enrichment with ^2H2O; assay type: in vivo; conditions: levels maintained for weeks or months; >100 human subjects; rapid changes in body water enrichment prevented
Excerpt: Relatively high body water enrichments of ^2H2O (e.g., 1-10% of the total body water is labeled) may be achieved using the techniques of the invention. This water enrichment is relatively constant and stable as these levels are maintained for weeks or months in humans and in experimental animals without any evidence of toxicity (FIGS. 3-5). This finding in a large number of human subjects (>100 people) is contrary to previous concerns about vestibular toxicities at high doses of ^2H2O. Applicants have discovered that as long as rapid changes in body water enrichment are prevented (e.g., by initial administration in small, divided doses), high body water enrichments of ^2H2O can be maintained with no toxicities. For example, the low expense of commercially available ^2H2O allows long-term maintenance of enrichments in the 1-5% range at relatively low expense (e.g., calculations reveal a lower cost for 2 months labeling at 2% ^2H2O enrichment, and thus 7-8% enrichment in the alanine precursor pool (FIGS. 6A-B), than for 12 hours labeling of ^2H-leucine at 10% free leucine enrichment, and thus 7-8% enrichment in leucine precursor pool for that period).

## Cn1cncc1C[C@H](N)C(=O)O [3-methyl-histidine]
Muscle myosin
  k: replacement rate constant of 3-methyl-histidine: 0.037 day⁻¹

## [2H]O[2H] [^2H2O]
[1]; human subjects drank 50-100 ml ^2H2O daily for 10-12 weeks (FIG. 4)
  stability of ^2H2O enrichment in body water (precursor pool): stable over a period of weeks
[1]; human subjects, intake of ^2H2O for 4-8 weeks
  ^2H2O (%): body water enrichment: 1.8%
[2]
  toxicity at high body water enrichments of ^2H2O: no toxicities
